Data: patent publication US20250042922A1, “KRAS MODULATING COMPOUNDS” (priority 2023, published 2025)

Tests used:
[1] = molecular target: GDP-loaded wild-type KRAS (WT) (Homo sapiens, UniProt P01116); test: KRAS (GDP) biochemical TR-FRET probe displacement assay, WT; assay type: binding; conditions: 2 hours
Experimental: (§1) Compounds are tested for binding to GDP-loaded wild-type KRAS (WT), KRAS-G12C, KRAS-G12D, and KRAS-G12V in a 384-well assay format using a TR-FRET probe displacement assay in buffer consisting of 50 mM Hepes (pH 7.4), 150 mM NaCl, 5 mM MgCl2 and 0.005% Tween-20. […] Compounds are serially diluted (1:3) in DMSO. The LabCyte ECHO Acoustic dispenser was used to pre-spot the assay plates (384-well Non-Binding Surface plates, Corning, Catalog #3824) with 50 nL of compound. 5 μL of 2X enzyme concentration is added to the pre-spotted plates and incubated for 30 minutes before adding 5 μL of 2X concentration of Eu-streptavidin and Cy-5 labelled probe (10 μL final reaction volume). The plates are incubated at room temperature for 2 hours before measuring TR-FRET ratio (665 nm/615 nm) on the Envision multimode plate reader. The ratios are normalized to a positive (saturating concentration of known inhibitor) and negative (DMSO) control and plotted against the log of compound concentration.

GDP-loaded KRAS-G12C = GDP-loaded KRAS-G12C (Homo sapiens, UniProt P01116, G12C); test: KRAS (GDP) biochemical TR-FRET probe displacement assay, G12C; assay type: binding; conditions: 2 hours
Experimental: as §1

GDP-loaded KRAS-G12V = GDP-loaded KRAS-G12V (Homo sapiens, UniProt P01116, G12V); test: KRAS (GDP) biochemical TR-FRET probe displacement assay, G12V; assay type: binding; conditions: 2 hours
Experimental: as §1

GDP-loaded KRAS-G12D = GDP-loaded KRAS-G12D (Homo sapiens, UniProt P01116, G12D); test: KRAS (GDP) biochemical TR-FRET probe displacement assay, G12D; assay type: binding; conditions: 2 hours
Experimental: as §1

[2] = system: cellular pERK in Kuramochi (WT KRAS) cells; test: Cell based pERK assay, Kuramochi; conditions: Kuramochi (WT KRAS), 2 hours incubation, HTRF phospho-ERK1/2; read-out: Kuramochi pERK EC50
How it was run: (§2)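 Cells seeded overnight (5000 AsPC-1 or 7500 others per well; RPMI/10% FBS, DMEM/10% FBS for MIA-PaCa-2), treated with 1:3 serial dilutions for 2 h at 37 °C. Phospho-ERK1/2 (Thr202/Tyr204) measured by HTRF (665/615 nm) after overnight lysis, normalized to DMSO and saturating known-inhibitor controls.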

[3] = system: cellular pERK in MIA-PaCa-2 (KRAS-G12C) cells; test: Cell based pERK assay, MIA-PaCa-2; conditions: Homo sapiens; MIA-PaCa-2 (KRAS-G12C), 2 hours incubation, HTRF phospho-ERK1/2; read-out: MIAPaCa2 pERK EC50
How it was run: as §2

[4] = system: cellular pERK in ASPC-1 (KRAS G12D) cells; test: Cell based pERK assay, ASPC-1; conditions: Homo sapiens, ASPC1; ASPC-1 (KRAS G12D), 2 hours incubation, HTRF phospho-ERK1/2; read-out: AsPC1 pERK EC50
How it was run: as §2

[5] = system: cellular pERK in NCI-H441 (KRAS-G12V) cells; test: Cell based pERK assay, NCI-H441; conditions: Homo sapiens; NCI-H441 (KRAS-G12V), 2 hours incubation, HTRF phospho-ERK1/2; read-out: H441 PERK EC50
How it was run: as §2

GDP-loaded KRAS-G12D, sequence (P01116 1-188 isoform P01116-2 G12D): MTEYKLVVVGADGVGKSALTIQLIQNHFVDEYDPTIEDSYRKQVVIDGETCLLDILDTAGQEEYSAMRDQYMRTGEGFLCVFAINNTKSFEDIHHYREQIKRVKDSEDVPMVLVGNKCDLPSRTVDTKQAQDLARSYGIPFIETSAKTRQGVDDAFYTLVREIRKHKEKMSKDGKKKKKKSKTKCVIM
GDP-loaded wild-type KRAS (WT), sequence (P01116 1-188 isoform P01116-2): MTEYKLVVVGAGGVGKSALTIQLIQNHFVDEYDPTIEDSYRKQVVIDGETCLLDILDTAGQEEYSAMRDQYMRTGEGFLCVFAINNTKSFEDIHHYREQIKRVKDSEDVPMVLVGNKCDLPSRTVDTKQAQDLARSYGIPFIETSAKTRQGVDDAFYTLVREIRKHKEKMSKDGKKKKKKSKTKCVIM
GDP-loaded KRAS-G12V, sequence (P01116 1-188 isoform P01116-2 G12V): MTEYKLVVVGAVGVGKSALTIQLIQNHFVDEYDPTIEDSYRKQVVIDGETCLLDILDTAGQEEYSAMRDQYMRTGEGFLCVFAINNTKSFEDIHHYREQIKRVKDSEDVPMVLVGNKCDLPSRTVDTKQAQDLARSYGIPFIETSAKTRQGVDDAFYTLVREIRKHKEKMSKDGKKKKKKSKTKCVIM
GDP-loaded KRAS-G12C, sequence (P01116 1-188 isoform P01116-2 G12C): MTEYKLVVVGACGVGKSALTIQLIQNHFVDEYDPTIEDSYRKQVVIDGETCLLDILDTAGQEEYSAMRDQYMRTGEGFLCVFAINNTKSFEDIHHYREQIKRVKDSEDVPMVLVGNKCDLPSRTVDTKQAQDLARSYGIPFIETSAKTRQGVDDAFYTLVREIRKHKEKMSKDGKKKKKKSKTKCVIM

Compound `N#Cc1c(N)sc2c(F)ccc(-c3nc4c5c(nc(OCC67CCCN6CCC7)nc5c3F)N3C[C@@]5(F)CC[C@](F)(N5)[C@H]3CCC4)c12` [Example 4-7, 2-amino-7-fluoro-4-((6aR,7R,10S)-1,7,10-trifluoro-13-((tetrahydro-1H-pyrrolizin-7a(5H)-yl)methoxy)-5,6,6a,7,8,9,10,11-octahydro-4H-3,11a,12,14,15-pentaaza-7,10-methanocyclohepta[4,5]cycloocta[1,2,3-de]naphthalen-2-yl)benzo[b]thiophene-3-carbonitrile] has an IC50 [1] of 10.1 nM, an IC50 (GDP-loaded KRAS-G12C) of 28.5 nM and an IC50 (GDP-loaded KRAS-G12V) of 44.1 nM. The IC50 (GDP-loaded KRAS-G12D) was 86.8 nM, the EC50 [2] was 15.6 nM and the EC50 [3] was 59.8 nM. For the same compound, the EC50 [4] was 840 nM.

`C#Cc1c(F)ccc2cc(N)cc(-c3nc4c5c(nc(OC[C@@H]6CCCN6C)nc5c3F)N3C[C@@]5(F)CC[C@](F)(N5)[C@H]3CCC4)c12` [Example 4-8, 5-ethynyl-6-fluoro-4-((6aR,7R,10S)-1,7,10-trifluoro-13-(((S)-1-methylpyrrolidin-2-yl)methoxy)-5,6,6a,7,8,9,10,11-octahydro-4H-3,11a,12,14,15-pentaaza-7,10-methanocyclohepta[4,5]cycloocta[1,2,3-de]naphthalen-2-yl)naphthalen-2-amine] showed an IC50 [1] of 6.19 nM, an IC50 (GDP-loaded KRAS-G12C) of 13.2 nM and an IC50 (GDP-loaded KRAS-G12V) of 34.7 nM. The IC50 (GDP-loaded KRAS-G12D) was 57.8 nM, the EC50 [2] was 5.11 nM and the EC50 [3] was 6.73 nM. It also gave an EC50 [4] of 169 nM.

Compound `C[C@H]1Cc2nc(-c3cc(N)cc(Cl)c3C(F)(F)F)c(F)c3nc(OCC45CCCN4CCC5)nc(c23)N2C[C@@]3(F)CC[C@](F)(N3)[C@H]12` [Example 4-17, 3-chloro-5-((8S,8aS,9R,12S)-4,9,12-trifluoro-8-methyl-2-((tetrahydro-1H-pyrrolizin-7a(5H)-yl)methoxy)-7,8,8a,9,10,11,12,13-octahydro-1,3,6,13a,14-pentaaza-9,12-methanonaphtho[1,8-ab]heptalen-5-yl)-4-(trifluoromethyl)aniline] has an IC50 [1] of 0.161 nM, an IC50 (GDP-loaded KRAS-G12C) of 0.479 nM and an IC50 (GDP-loaded KRAS-G12V) of 0.865 nM. It also gave an IC50 (GDP-loaded KRAS-G12D) of 2.79 nM, an EC50 [2] of 4.32 nM and an EC50 [3] of 1.72 nM. It also gave an EC50 [4] of 38 nM.

Compound `CCC1CCCc2cc(N)cc(-c3nc4c5c(nc(OCC67CCCN6CCC7)nc5c3F)N3C[C@@]5(F)CC[C@](F)(N5)[C@H]3CCC4)c21` (stereo partly drawn) [Example 4-24, 5-ethyl-4-((6aR,7R,10S)-1,7,10-trifluoro-13-((tetrahydro-1H-pyrrolizin-7a(5H)-yl)methoxy)-5,6,6a,7,8,9,10,11-octahydro-4H-3,11a,12,14,15-pentaaza-7,10-methanocyclohepta[4,5]cycloocta[1,2,3-de]naphthalen-2-yl)-5,6,7,8-tetrahydronaphthalen-2-amine] has an IC50 [1] greater than 100 nM, an IC50 (GDP-loaded KRAS-G12C) greater than 100 nM and an IC50 (GDP-loaded KRAS-G12V) greater than 100 nM. The IC50 (GDP-loaded KRAS-G12D) was greater than 100 nM, the EC50 [2] was 312 nM and the EC50 [3] was 560 nM. The EC50 [4] was greater than 1000 nM.

In the case of `C#Cc1c(F)ccc2cc(N)cc(-c3nc4c5c(nc(OC[C@]6(C)CN(C)CC/C6=C\F)nc5c3F)N3C[C@@]5(F)CC[C@](F)(N5)[C@@H]3[C@@H](C)C4)c12` [Example 4-39, 5-ethynyl-6-fluoro-4-((5S,5aS,6R,9S)-1,6,9-trifluoro-12-(((S,E)-4-(fluoromethylene)-1,3-dimethylpiperidin-3-yl)methoxy)-5-methyl-4,5,5a,6,7,8,9,10-octahydro-3,10a,11,13,14-pentaaza-6,9methanonaphtho[1,8-ab]heptalen-2-yl)naphthalen-2-amine], the IC50 (GDP-loaded KRAS-G12C) is reported as 0.383 nM, the IC50 (GDP-loaded KRAS-G12V) is reported as 0.583 nM and the IC50 (GDP-loaded KRAS-G12D) is reported as 1.12 nM. The EC50 [2] was 3.76 nM, the EC50 [3] was 0.253 nM and the EC50 [5] was 0.689 nM. It also gave an EC50 [4] of 6.04 nM.
